Test results as given in ChEMBL document CHEMBL3885861, “Open TG-GATES”.

Species on record: Rattus norvegicus
Experiment: Open TG-GATES - Regimen: Single
Assay type: toxicity, organism-based, Sprague-Dawley
Parameters: regimen Single, gender Male, age 6 weeks
Settings: in vivo, po, 15 mg/kg, route gavage, dose level Low; for APTT / Bas / Eos / Fbg / Hb / Ht / Lym / MCH / MCHC / MCV / Mono / Neu / PT / Plat / RBC / Ret / WBC: tissue Blood; for KIDNEY_L / KIDNEY_R / KIDNEY_TOTAL: tissue Kidney; for LIVER: tissue Liver; for A/G / ALP / ALT / AST / BUN / CRE / Ca / Cl / DBIL / GLC / IP / K / LDH / Na / PL / RALB / TBIL / TC / TG / TP / gamma-GTP: tissue Plasma

S=C=Nc1cccc2ccccc12 [1-NAPHTHYLISOTHIOCYANATE]
TERMINAL_BW (9 h): 215.5 g
APTT (9 h): 18 s
Bas (9 h): 0.2%
Eos (9 h): 0.8%
Fbg (9 h): 237 mg/dL
Hb (9 h): 13.6 g/dL
Ht (9 h): 38.1%
Lym (9 h): 74.8%
MCH (9 h): 21.5 pg
MCHC (9 h): 35.6%
MCV (9 h): 60.5 fL
Mono (9 h): 2.4%
Neu (9 h): 20.8%
PT (9 h): 12.1 s
Plat (9 h): 122.9 x10_4/uL
RBC (9 h): 631.6 x10_4/ul
Ret (9 h): 7.1%
WBC (9 h): 92.1 x10_2/uL
KIDNEY_L (9 h): 1 g
KIDNEY_R (9 h): 0.9 g
KIDNEY_TOTAL (9 h): 1.9 g
LIVER (9 h): 8.7 g
A/G (9 h): 1.7
ALP (9 h): 1018.2 IU/L
ALT (9 h): 35.8 IU/L
AST (9 h): 72 IU/L
BUN (9 h): 10.4 mg/dL
CRE (9 h): 0.4 mg/dL
Ca (9 h): 10.4 mg/dL
Cl (9 h): 104 meq/L
DBIL (9 h): 0.092 mg/dL
GLC (9 h): 223 mg/dL
IP (9 h): 10.1 mg/dL
K (9 h): 3.8 meq/L
LDH (9 h): 157.4 IU/L
Na (9 h): 142.2 meq/L
PL (9 h): 134.2 mg/dL
RALB (9 h): 3.6 g/dL
TBIL (9 h): 0.1 mg/dL
TC (9 h): 73.2 mg/dL
TG (9 h): 34.8 mg/dL
TP (9 h): 5.7 g/dL
gamma-GTP (9 h): 1 IU/L
TERMINAL_BW (24 h): 232.5 g
APTT (24 h): 17.6 s
Bas (24 h): 0.4%
Eos (24 h): 0.8%
Fbg (24 h): 217.8 mg/dL
Hb (24 h): 13.9 g/dL
Ht (24 h): 38.5%
Lym (24 h): 80%
MCH (24 h): 21.9 pg
MCHC (24 h): 36%
MCV (24 h): 60.8 fL
Mono (24 h): 2%
Neu (24 h): 16%
PT (24 h): 11.9 s
Plat (24 h): 122.9 x10_4/uL
RBC (24 h): 633.6 x10_4/ul
Ret (24 h): 6.5%
WBC (24 h): 106 x10_2/uL
KIDNEY_L (24 h): 1 g
KIDNEY_R (24 h): 1 g
KIDNEY_TOTAL (24 h): 2 g
LIVER (24 h): 10.3 g
A/G (24 h): 1.6
ALP (24 h): 1064.4 IU/L
ALT (24 h): 39.8 IU/L
AST (24 h): 73.6 IU/L
BUN (24 h): 15.6 mg/dL
CRE (24 h): 0.4 mg/dL
Ca (24 h): 10.6 mg/dL
Cl (24 h): 103.8 meq/L
DBIL (24 h): 0.068 mg/dL
GLC (24 h): 198 mg/dL
IP (24 h): 7.3 mg/dL
K (24 h): 3.8 meq/L
LDH (24 h): 209.4 IU/L
Na (24 h): 141.6 meq/L
PL (24 h): 131 mg/dL
RALB (24 h): 3.4 g/dL
TBIL (24 h): 0.1 mg/dL
TC (24 h): 67.4 mg/dL
TG (24 h): 84.2 mg/dL
TP (24 h): 5.5 g/dL
gamma-GTP (24 h): 1.6 IU/L
